In data set [1] the target is T1, human TRPM8 (Homo sapiens, UniProt Q7Z2W7).
T1 construct: The full-length human TRPM8 gene was amplified from plasmid RC220615 (manufactured by Origene) using a PCR method; host or cells: Flp-In T-REx 293 cells ('Flp-In293293 cells' [sic]), pcDNA5/FRT/TO, doxycycline-induced
Put plainly: Evaluation of cooling intensity (TRPM8 activity evaluation), calcium fluorescence in human TRPM8 stable expression cells. Particulars: TRPM8 activation action, Fluo4-AM fluorescence, 0.1 μM to 1000 μM, 32° C. The class given is cell-based. The method, then:
The full-length human TRPM8 gene was amplified from plasmid RC220615 (manufactured by Origene) using a PCR method. The obtained PCR product was subcloned into pcDNA5/FRT/TO (manufactured by Thermo Fisher Scientific K.K.), and then it was introduced into Flp-In293293 cells (manufactured by Thermo Fisher Scientific K.K.) by using a Flp-InT-REx system (manufactured by Thermo Fisher Scientific K.K.), so that a human TRPM8 stable expression cell line was prepared.
The cultured human TRPM8 stable expression cells were seeded at a ratio of 50,000 cells/well to a poly-D-lysine-coated 96-well microplate (manufactured by Corning Incorporated), 1 μg/mL of doxycycline (manufactured by Takara Bio Inc.) was added thereto, and then the seeded cells were cultured at 37° C. for one night, so that the expression of the human TRPM8 was induced.
The culture solution was replaced with a buffer solution, and then, a fluorescent calcium indicator (Fluo4-AM: manufactured by Dojindo Laboratories) was added thereto, the cells were incubated at 37° C. for 30 minutes, and they were transferred to a fluorescent microplate reader (FlexStation3: manufactured by Molecular Devices, LLC.). Each of the compounds obtained in Examples and comparative compounds was added in a final concentration range of 0.1 μM to 1000 μM, and the changes in fluorescence having a wavelength of 525 nm when excited at a wavelength of 485 nm were measured at a device temperature of 32° C., and then EC50 values were determined.

Data set [2] deals with oral cavity. Briefly: Sensory evaluation of 30 ppm aqueous solutions in the mouth by four flavorists. The class given is in vivo, human. The method, then: The evaluation was performed by four flavorists. The aqueous solution was taken into the mouth and spat out after the mouth was rinsed, and cooling intensity, cool-feeling persistence, and quality of a cool-feeling in the oral cavity were evaluated.

T1 sequence (Q7Z2W7 whole entry): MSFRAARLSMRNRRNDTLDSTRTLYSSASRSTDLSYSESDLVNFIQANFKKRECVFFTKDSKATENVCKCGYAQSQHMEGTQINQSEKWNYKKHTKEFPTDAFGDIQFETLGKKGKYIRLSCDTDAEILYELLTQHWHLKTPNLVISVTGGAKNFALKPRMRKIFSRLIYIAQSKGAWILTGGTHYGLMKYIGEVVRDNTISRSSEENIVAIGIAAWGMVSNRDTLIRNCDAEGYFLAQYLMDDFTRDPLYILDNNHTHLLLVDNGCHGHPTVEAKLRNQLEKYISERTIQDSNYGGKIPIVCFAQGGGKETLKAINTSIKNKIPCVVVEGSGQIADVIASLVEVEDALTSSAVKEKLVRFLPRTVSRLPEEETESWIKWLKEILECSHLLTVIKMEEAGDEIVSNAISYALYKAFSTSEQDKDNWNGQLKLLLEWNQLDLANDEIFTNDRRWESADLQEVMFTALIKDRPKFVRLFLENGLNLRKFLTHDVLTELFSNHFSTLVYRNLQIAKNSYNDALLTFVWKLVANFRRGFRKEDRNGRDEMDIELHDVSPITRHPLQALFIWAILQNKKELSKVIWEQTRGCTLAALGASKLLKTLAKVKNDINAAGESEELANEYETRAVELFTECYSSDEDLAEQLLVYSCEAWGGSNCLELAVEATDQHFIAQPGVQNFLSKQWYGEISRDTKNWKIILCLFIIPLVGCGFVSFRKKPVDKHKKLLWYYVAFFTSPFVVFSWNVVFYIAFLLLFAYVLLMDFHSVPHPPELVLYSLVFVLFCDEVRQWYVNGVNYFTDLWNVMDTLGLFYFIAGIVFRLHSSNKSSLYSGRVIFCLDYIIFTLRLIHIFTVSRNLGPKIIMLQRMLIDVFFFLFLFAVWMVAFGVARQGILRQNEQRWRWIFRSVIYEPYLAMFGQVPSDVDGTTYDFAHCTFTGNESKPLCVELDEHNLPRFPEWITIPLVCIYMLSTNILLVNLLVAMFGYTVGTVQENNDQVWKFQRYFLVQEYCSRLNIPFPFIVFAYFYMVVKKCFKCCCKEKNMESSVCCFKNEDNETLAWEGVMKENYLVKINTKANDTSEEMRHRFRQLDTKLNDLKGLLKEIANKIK

On to `C[C@H]1CCCC(C)(C)[C@@H]1C(=O)Nc1ccc2c(c1)OCO2` [(1R, 6S)-10-33], for which the EC50 (usually the concentration that produces a half-maximal response) in data set [1] came to 3.75 µM.

In the case of `C[C@H]1CCCC(C)(C)[C@@H]1C(=O)Nc1ccc(CCO)cc1` [(1R, 6S)-10-36], the melting point (in general, the temperature, or range, at which the solid turns liquid) is 85 to 87 °C. In data set [1], the EC50 turned out to be 1.67 µM.

In turn, `C[C@@H]1CCCC(C)(C)[C@H]1C(=O)NCCc1ccc(O)cc1` [(1S, 6R)-10-8, (1S, 6R)-N-(4-hydroxyphenethyl)-2,2,6-trimethylcyclohexane-1-carboxamide] returned a melting point of 180 to 182 °C. Further, the concentration giving a half-maximal response (EC50) in data set [1] worked out at 5.9 µM.

As for `CCOC(=O)CNC(=O)[C@@H]1C[C@H](C)CCC1C(C)C` (stereo partly shown) [WS-5, reference compound], in data set [1], the EC50 was 0.73 µM.

In the case of `C[C@H]1CCCC(C)(C)[C@@H]1C(=O)Nc1ccc(CC#N)cc1` [(1R, 6S)-10-42], the EC50 in data set [1] turned out to be 1.77 µM.

With `C[C@H]1CCCC(C)(C)[C@@H]1C(=O)NCC(=O)c1ccccc1` [(1R)-10-10, (1R, 6S)-2,2,6-trimethyl-N-(2-oxo-2-phenylethyl) cyclohexane-1-carboxamide], the EC50 in data set [1] amounted to 1.11 µM.

As for `CCNC(=O)C(C)(C(C)C)C(C)C` [WS-23, reference compound], the EC50 in data set [1] amounted to 23.1 µM.

The compound `C[C@@H]1CCCC(C)(C)[C@H]1C(=O)NC[C@H](O)c1ccccc1` [(1S, 6R)-10-5, (1S, 6R)-N-((R)-2-hydroxy-2-phenylethyl)-2,2,6-trimethylcyclohexane-1-carboxamide] showed a melting point of 105 to 110 °C. The EC50 in data set [1] was determined as 7.68 µM.

In turn, `C[C@H]1CCCC(C)(C)[C@@H]1C(=O)NC[C@@H](O)c1ccccc1` [(1R, 6S)-10-6, (1R, 6S)-N-((S)-2-hydroxy-2-phenylethyl)-2,2,6-trimethylcyclohexane-1-carboxamide] had a melting point of 107 to 111 °C. In addition, the EC50 in data set [1] is 0.55 µM.

With `C[C@H]1CCCC(C)(C)[C@@H]1C(=O)Nc1ccncc1` [(1R, 6S)-10-43], the EC50 in data set [1] amounted to 15 µM.

`C[C@H]1CCCC(C)(C)[C@@H]1C(=O)NCC(O)c1ccccc1` (stereo partly drawn) [(1R, 6S)-10-4, (1R, 6S)-N-(2-hydroxy-2-phenylethyl)-2,2,6-trimethylcyclohexane-1-carboxamide]: the melting point lay within 95 to 98 °C. For the same compound, the EC50 in data set [1] was 0.6 µM.

In the case of `C[C@H]1CCCC(C)(C)[C@@H]1C(=O)NCc1cccs1` [(1R, 6S)-10-22], the EC50 in data set [1] stood at 1.97 µM.

On to `CCNC(=O)[C@@H]1C[C@H](C)CCC1C(C)C` (stereo partly shown) [WS-3, reference compound], for which the EC50 in data set [1] was 1.61 µM.

The compound `C[C@@H]1CCCC(C)(C)[C@H]1C(=O)NCC(O)c1ccccc1` (stereo partly drawn) [(1S, 6R)-10-4, (1S, 6R)-N-(2-hydroxy-2-phenylethyl)-2,2,6-trimethylcyclohexane-1-carboxamide] came in with a melting point of 96 to 99 °C. Further, the EC50 in data set [1] is 6.36 µM.

With `COc1ccc(NC(=O)[C@@H]2[C@@H](C)CCCC2(C)C)cc1` [(1R, 6S)-10-28], the EC50 in data set [1] stood at 1.59 µM.

For the compound `C[C@H]1CCCC(C)(C)C1C(=O)OC[C@@H](O)c1ccccc1` (stereo partly drawn) [(1R, 6S)-10-51], the EC50 in data set [1] is 1.74 µM.

As to `COC(=O)c1ccc(NC(=O)[C@@H]2[C@@H](C)CCCC2(C)C)cc1` [(1R, 6S)-10-38], the EC50 in data set [1] amounted to 5.76 µM.

In the case of `C[C@H]1CCCC(C)(C)[C@@H]1C(=O)NCCc1ccc(O)cc1` [(1R, 6S)-10-8, (1R, 6S)-N-(4-hydroxyphenethyl)-2,2,6-trimethylcyclohexane-1-carboxamide], the melting point was 178 to 180 °C. Further, in data set [1], the EC50 was 1.19 µM.

`COc1ccc(CCNC(=O)[C@@H]2[C@@H](C)CCCC2(C)C)cc1OC` [(1R, 6S)-10-13]: the EC50 in data set [1] amounted to 7.72 µM.

With `CC(=O)c1ccc(NC(=O)[C@@H]2[C@@H](C)CCCC2(C)C)cc1` [(1R, 6S)-10-35], in data set [1], the EC50 is 1.19 µM.

On to `CNC(=O)[C@@H]1[C@@H](C)CCCC1(C)C` (stereo in doubt) [N,2,2,6-tetramethylcyclohexanecarboxamide, reference compound], for which the EC50 in data set [1] amounted to 110 µM.

As to `C[C@H]1CCCC(C)(C)[C@@H]1C(=O)Nc1ccc(O)cc1` [(1R, 6S)-10-27], the EC50 in data set [1] was found to be 6.14 µM.

For `C[C@H]1CCCC(C)(C)[C@@H]1C(=O)NCCc1ccccc1` [(1R, 6S)-10-1, (1R, 6S)-2,2,6-trimethyl-N-phenethylcyclohexane-1-carboxamide], the melting point was 79 to 82 °C. Besides, the EC50 in data set [1] was determined as 0.59 µM. In data set [2] (30 ppm aqueous solution), the cool-feeling persistence is at least 30 min and the cooling intensity entry is “very strong”. In data set [2] (30 ppm aqueous solutions), the “cooling intensity compared with N,2,2,6-tetramethylcyclohexanecarboxamide, 1-menthol and WS-3” value was “apparently stronger”; the “cooling intensity compared with WS-5” value is “stronger”.

Consider `C[C@@H]1CCCC(C)(C)[C@H]1C(=O)NC[C@@H](O)c1ccccc1` [(1S, 6R)-10-6, (1S, 6R)-N-((S)-2-hydroxy-2-phenylethyl)-2,2,6-trimethylcyclohexane-1-carboxamide], for which the EC50 in data set [1] is 5.98 µM.

Regarding `C[C@H]1CCCC(C)(C)[C@@H]1C(=O)NC[C@H](O)c1ccccc1` [(1R, 6S)-10-5, (1R, 6S)-N-((R)-2-hydroxy-2-phenylethyl)-2,2,6-trimethylcyclohexane-1-carboxamide], the EC50 in data set [1] turned out to be 3.96 µM.

Consider `C[C@H]1CCCC(C)(C)[C@H]1C(=O)NCC(=O)c1ccccc1` [(1S)-10-10, (1S, 6S)-2,2,6-trimethyl-N-(2-oxo-2-phenylethyl) cyclohexane-1-carboxamide], for which, in data set [1], the EC50 came out at 2.1 µM.

For the compound `CSc1ccc(NC(=O)[C@@H]2[C@@H](C)CCCC2(C)C)cc1` [(1R, 6S)-10-41], the half-maximal effective concentration (EC50) in data set [1] was 1.06 µM.

For `C[C@H]1CCCC(C)(C)[C@@H]1C(=O)NCc1ccsc1` [(1R, 6S)-10-23], in data set [1], the EC50 is 3.48 µM.

For the compound `COc1ccc(CNC(=O)C2[C@@H](C)CCCC2(C)C)cc1` (stereo partly drawn) [(1S, 6R)-10-28], the EC50 in data set [1] amounted to 2.42 µM.

`C[C@H]1CCCC(C)(C)[C@@H]1C(=O)NCCc1ccc(O)c(O)c1` [(1R, 6S)-10-12] showed a melting point of 75 to 77 °C. Besides, the EC50 in data set [1] stood at 2.55 µM.

Values taken from patent publication US11344488B2 (TAKASAGO INTERNATIONAL CORPORATION, priority 2017, dated 2022).
